Measurements as given in PubChem BioAssay (NCI).
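Grown in 96-well plates, cells were treated for 48 hours with each compound at five concentrations. Insufficient inhibition: endpoint recorded as highest concentration tested. GI50 marks 50% less growth. TGI denotes the concentration required for complete inhibition of growth.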

Columns and labels:
Test in all cases: NCI tumour cell line growth inhibition, 48 h
[1] = tested on: 786-0 renal
[2] = tested on: CAKI-1 renal
[3] = tested on: CCRF-CEM leukemia
[4] = tested on: HCT-116 colon
[5] = tested on: HT29 colon
[6] = tested on: MCF7 breast
[7] = tested on: MDA-MB-435
[8] = tested on: MDA-N
[9] = tested on: MOLT-4 leukemia
[10] = tested on: PC-3 prostate
[11] = tested on: RPMI-8226 leukemia
[12] = tested on: SF-295 CNS
[13] = tested on: SK-MEL-5 melanoma
[14] = tested on: SNB-19 CNS
[15] = tested on: TK-10 renal

SMILES	TGI [1] [µM]	TGI [2] [µM]	TGI [3] [µM]	TGI [4] [µM]	TGI [5] [µM]	TGI [6] [µM]	TGI [7] [µM]	TGI [8] [µM]	TGI [9] [µM]	TGI [10] [µM]	TGI [11] [µM]	TGI [12] [µM]	TGI [13] [µM]	TGI [14] [µM]	TGI [15] [µM]	GI50 [11] [µM]
CC(CN(C)C)C(=O)c1ccccc1C(=O)O (centres undefined)	> 100	83.9	30.3	> 100	> 100	> 100	50.9	> 100	70.1	94.5	78	> 100	> 100	> 100	47.7	
Nc1ccc(-c2ncc3cc(-c4cccc(-c5cc6cnc(-c7ccc(N)cc7)nc6c6ccccc56)c4)c4ccccc4c3n2)cc1	> 100	> 100	> 100	> 100	> 100	> 100	> 100	> 100	> 100	> 100	> 100	> 100	> 100	> 100	> 100	
c1cc(-c2csc(-c3ccsc3)c2)cs1	> 100	> 100	> 100	> 100	> 100	48.6	> 100	> 100	> 100	> 100	> 100	> 100	> 100	> 100	> 100	
COC(=O)CCC1(C)C2CCC1(C)/C(=N/O)C2 (centres undefined)	> 100	> 100	> 100	> 100	> 100	> 100	> 100	> 100	> 100	> 100	> 100	> 100	> 100	> 100	> 100	
O=c1[nH]c(=O)n(C2CC(O)C(CO)O2)cc1NN=NCCc1ccccc1 (centres undefined)	> 100	> 100	> 100	> 100	> 100	> 100	> 100	> 100	> 100	> 100	> 100	> 100	> 100	> 100	> 100	
Oc1ccc(Cl)cc1-c1[nH]c(=S)nc(-c2ccccc2)c1Cl	> 100	> 100	> 100	> 100	> 31.6	> 100	> 100	> 100	> 100	> 100	> 100	> 87.8	> 100	> 100	> 100	
COc1ccc(N)c(C(O)CCNC(C)=O)c1 (centres undefined)	> 100	> 100	> 100	> 100	> 100	> 100	> 100	> 100	> 100	> 100	> 100	> 100	> 100	> 100	> 100	
OC(CC(CC(O)(C(F)(F)Cl)C(F)(F)Cl)=NNc1ccccc1)(C(F)(F)Cl)C(F)(F)Cl	> 10	6.43	> 10	3.89	> 10	9.93	> 10	7.81	> 10	4.7	> 10	7.09	3.45	> 10	9.04	
CC1(C)CC(=O)/C(=C/C2CCNC2=S)C(=O)N1 (centres undefined)	> 100	> 100	> 100	> 100	> 100	> 100	> 100	> 100	> 100	> 100	> 100	> 100	> 100	> 100	> 100	
CCOc1cc(-c2nc3ccccn3c2/N=C/c2cc([N+](=O)[O-])cc([N+](=O)[O-])c2O)ccc1O	> 100	> 100	> 100	> 100	> 100	> 100	> 100	> 100	> 100	> 100	> 100	> 100	> 100	> 100	> 100	
CCOC(=O)N1CCN(c2c(C)nc(C)[nH]c2=O)CC1	> 100	> 100	> 100	> 100	> 100	> 100	> 100	> 100	> 100	> 100	> 100	> 100	> 100	> 100	> 100	
CO[C@H]1[C@@H](O)[C@@H](C)O[C@@H](O[C@H]2CC[C@@]3(C)[C@H](CC[C@@H]4[C@@H]3CC[C@]3(C)[C@@H](C5=CC(=O)OC5)CC[C@]43O)C2)[C@@H]1O	0.01	0.0128	0.37	0.0275	0.0504	1.1	0.0693	0.0504	0.436	0.0171	25	0.157	0.0342	0.211	0.0201	0.00781
CC(C)(N)CO[C@H]1C[C@H]2CC[C@@]1(C)C2(C)C	30.2	70.6	83.6	29.8	34	37.1	30.5	30.2	80.9	> 100	40.7	39.3	32.8	68.5	40	
COC(=O)c1ccccc1/C=C1/Cc2cccc(C)c2C1=O	> 100	> 100	> 100	> 100	> 100	> 100	> 100	> 100	> 100	> 100	> 100	> 100	> 100		> 100	
CC1CC(=O)Nc2cc(Cl)ccc2N1C(=O)C1CC1 (centres undefined)	> 100	> 100	> 100	> 100	> 100	> 100	> 100	> 100	> 100	> 100	> 100	> 100	> 100	> 100	> 100	
O=c1cc(CO)n(CCc2c[nH]c3ccccc23)cc1O	98.1	> 100	69.8	> 100	> 100	59.6	> 100	> 100	47.8	> 100	> 100	> 100	> 100	> 100	> 100	
O[C@@]1(c2cccs2)c2cccc(Cl)c2[C@](O)(c2cccs2)c2cccc(Cl)c21	32.5	> 100	> 100	27.4	35.5	37.2	35	36.4	56.3	50.7	66.2	31.3	34.7	80.3	99.4	
Nc1nc(Cl)c(N)c(NCC2(CO)CC(Cc3ccccc3)C2)n1 (centres undefined)	> 100	> 100	> 100	> 100	> 100	> 69.2	60	> 100	> 78.8	> 100	> 78.8	> 100	18.5	> 100	> 100	
C=C(C)C#CC(O)(C(=O)OC1CCN(C)CC1)C(C)C (centres undefined)	> 100	> 100	> 100	> 100	> 100	> 100	> 100	> 100	> 100	> 100	> 100	> 100	> 100	> 100	> 100	
COc1ccc(/C(CCl)=C(\Nc2ccccc2)c2ccc(OC)c(OC)c2)cc1OC	> 100	> 100	> 100	> 100	> 100	> 100	> 100	> 100	> 100	> 100	> 100	> 100	> 100	> 100	> 100	
CN(C)CCNc1ccc2ncnc3c2c1C(=O)c1ccccc1-3	5.47	2.01	2.89	1.71	2.98	2.57	6.21	4.11	2.31	7.21	3.83	2.88	4.99	29.8	3.92	
COc1cc(O)c2c(=O)c(OC)c(-c3ccc4c(c3)OCO4)oc2c1	> 100	> 100	> 100	> 100	> 100	> 100	> 100	> 100	> 100	> 100	> 100	> 92.2	98.1	> 84.1	> 100	
CCCCC1Cc2ccccc2-c2n1c1ccccc1[n+]2C (centres undefined)	> 100	> 100	> 100	> 100	57.8	> 100	> 100	64.5	81.8	43	14	> 100	18		> 100	
